Results published in patent EP0101412A2, “Anthelmintics” (CIBA-GEIGY AG, priority 1982, dated 1984).
Several values for one entry are separate records, joined by “and”; a condition that tells them apart may be missing. Equal values may be shown once.

Test system: Fasciola hepatica
Test: Trial in sheep artificially infected with Fasciola hepatica (faecal egg counts and adult helminth counts at necropsy)
Format: in vivo, Schafe
Details: for adulte Helminthen Mittelwert: group mean of 4 sheep; for EPG 12. Woche / EPG 13. Woche / adulte Helminthen Anzahl: sheep, individual animals; for EPG 12. Woche: 12th week after infection; for EPG 13. Woche: 13th week after infection; for adulte Helminthen Anzahl: at necropsy; for adulte Helminthen Reduktion in %: versus untreated control animals
Experimental: Versuch an mit Fasciola hepatica und Nematoden […] von Fasciola hepatica infiziert. Zu diesem Zweck […] in einer wässrigen 0,4%igen Suspension von Carboxymethylcellulose direkt in den Rumen […] oral mit je 10.000 bzw. 5.000 […] 3) von […] Trichostrongylus colubriformis und Haemonchus contortus infiziert. Für die Medikierung wurden die Versuchstiere in gleichgrossen Gruppen und in […], in denen der Anteil von Wirkstoff der Formel 1 2-5 mg/kg und der Anteil Wirkstoff der Formel II 3-7 mg/kg betrugen, an die […] in Gehegeboxen unter Normalbedingungen gehalten. Zur […] in bestimmten Zeitinvervallen nach Infizierung und Medikierung die mit dem Kot […] und die […]. Die erhaltenen Resultate […] und der Kontrollgruppen wurden für die Auswertung verglichen. Indikation: Fasciola hepatica […]): 19

Row | Structure (SMILES) | adulte Helminthen Mittelwert (I 2,5 mg/kg) | EPG 12. Woche (I 2,5 mg/kg) | EPG 13. Woche (I 2,5 mg/kg) | adulte Helminthen Anzahl (I 2,5 mg/kg) | adulte Helminthen Reduktion in % (I 2,5 mg/kg) | adulte Helminthen Mittelwert (II 6,75 mg/kg) | EPG 12. Woche (II 6,75 mg/kg) | EPG 13. Woche (II 6,75 mg/kg) | adulte Helminthen Anzahl (II 6,75 mg/kg) | adulte Helminthen Reduktion in % (II 6,75 mg/kg)
1 | CSc1nc2cc(Cl)c(Oc3cccc(Cl)c3Cl)cc2[nH]1 [Substanz I, 5-Chlor-6-(2',3'-dichlorphenoxy)-2-methylthiobenzimidazol] | 48,5 | 210 Eier pro gr Faeces and 160 Eier pro gr Faeces and 120 Eier pro gr Faeces and 20 Eier pro gr Faeces | 130 Eier pro gr Faeces and 160 Eier pro gr Faeces and 180 Eier pro gr Faeces and 15 Eier pro gr Faeces | 58 and 65 and 51 and 20 | 52,7% | – | – | – | – | –
2 | c1ccc([C@H]2CN3CCSC3=N2)cc1 [Substanz II, L-(-)-2,3,5,6-Tetrahydro-6-phenylimidazo[2,1-b]-thiazol] | – | – | – | – | – | 92,8 | 225 Eier pro gr Faeces and 990 Eier pro gr Faeces and 160 Eier pro gr Faeces and 226 Eier pro gr Faeces | 810 Eier pro gr Faeces and 1140 Eier pro gr Faeces and 250 Eier pro gr Faeces (2×) | 103 and 108 and 71 and 89 | 9,6%
